These results are taken from US20050175535A1 (CV Therapeutics, Inc., priority 2000, published 2005).

Assay [1] addresses A2A adenosine receptors (Sus scrofa, UniProt K9IW67). As to the kind of experiment: Competitive radioligand binding, [3H]ZM241385, pig striatum membranes. How it is done: Membranes were also obtained from porcine striatial cells as follows. […] The homogenate was filtered through cotton gauze and centrifuged at 48,000g for 15 minutes at 4° C. […] The final pellet was frozen at −80° C. until used for receptor binding assays.

Assay [2] deals with T1, human A1 adenosine receptors (Homo sapiens, UniProt P30542).
T1 construct: expressed in transfected cells
T1 sequence (P30542 1-326): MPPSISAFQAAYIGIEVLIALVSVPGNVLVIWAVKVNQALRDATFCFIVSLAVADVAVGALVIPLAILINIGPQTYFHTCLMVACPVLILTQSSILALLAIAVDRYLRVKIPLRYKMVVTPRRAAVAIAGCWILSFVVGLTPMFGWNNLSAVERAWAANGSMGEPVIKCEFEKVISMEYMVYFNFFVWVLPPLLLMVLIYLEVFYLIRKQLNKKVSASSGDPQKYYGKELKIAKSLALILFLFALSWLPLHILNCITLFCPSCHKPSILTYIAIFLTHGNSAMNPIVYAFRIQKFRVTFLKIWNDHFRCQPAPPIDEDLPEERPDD
The assay can be described thus: Competitive radioligand binding, [3H]CPX, CHO-hA1AdoR membranes. To be noted: [3H]CPX. How it is done:
The cell suspensions were homogenized and centrifuged at 48,000g for 15 minutes. The pellets were washed three times by re-suspension in ice-cold Tris-HCl buffer and centrifugation. The final pellet was re-suspended in Tris-HCl, aliquoted and frozen at −80° C. until used for receptor binding assays.

The test system of assay [3] is rat isolated perfused heart. As to the kind of experiment: Coronary conductance / coronary perfusion pressure in isolated perfused rat hearts. To be noted: Rattus norvegicus. On the procedure: Briefly, rats of either sex weighing 230-260 grams were anesthetized by intraperitoneal injection of a mixture of ketamine (100 mg/ml) and xylazine (20 mg/ml). The chest of each rat was opened and the heart removed, and rinsed in ice-cold modified Krebs-Henseleit (K-H) solution containing NaCl 117.9, KCl 4.5, CaCl2 2.5, MgSO4 1.18, KH2PO4 1.18, pyruvate 2.0 mmo/L. The aorta was cannulated and the heart was perfused at a flow rate of 10 ml/min with modified K-H solution. The K-H solution (pH 7.4) was gassed continuously with 95% O2 and 5% CO2 and warmed to 35±0.5° C. The heart was electrically paced at a fixed cycle length of 240 ms (250 beats/min) using a bipolar electrode placed in the left atrium. The electrical stimuli were generated by a Grass stimulator (Model S48, W. Warwick, R.I.) and delivered through a Stimuli Isolation Unit (Model SIU5, Astro-Med, Inc., NY) as square-wave pulses of 3-msec in duration and with an amplitude of at least twice the threshold intensity.
The identity of the adenosine receptor subtype (A1 or A2A) mediating the coronary vasodilation was determined.
Coronary perfusion pressure (CPP) was measured using a pressure transducer that was connected to the aortic cannula via a T-connector positioned approximately 3 cm above the heart. CPP was monitored throughout an experiment and recorded either on a chart recorder (Gould Recorder 2200S, Valley View, Ohio) or a computerized recording system (PowerLab/4S, ADInstruments Pty Ltd, Australia). Only hearts with CPP ranging from 60 to 85 mmHg (in the absence of drugs) were used in the study. CC conductance (in ml/min/mmHg) was calculated as the ratio between coronary perfusion rate (10 ml/min) and CPP.

Assay [4] relates to rat isolated perfused heart. As to the kind of experiment: Reversal time of coronary vasodilation in rat isolated perfused hearts.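 Note: each agonist bolused at its minimal concentration giving equal maximal coronary conductance rise.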 To be noted: bolus, rat isolated perfused heart. How it is done:
FIG. 10. Reversal of effect of agonist stimulation on CC. […] CC was measured at 8, 16 and 24 minutes after administration (FIG. 10A). […] R and N are the correlation coefficient and number of agonists, respectively.
The relationship between the affinity of agonists for the A2A receptor and the rate of reversal of agonist-mediated responses (coronary vasodilation in heart and cAMP accumulation in PC12 cells) upon termination of drug administration were determined. […] The duration of the coronary vasodilation in isolated rat hearts caused by adenosine, the CVT compounds, and other agonists measured as the time to 50% and 90% (t0.5 and t0.9, respectively) reversal of the increases in coronary conductance after termination of drug administration are summarized in Table 4.

In assay [5] the target is T2, A2A adenosine receptors (PC12 cells) (Rattus norvegicus, UniProt P30543). As to the kind of experiment: cAMP accumulation in PC12 cells. In general terms: cAMP levels reflect the balance of adenylyl cyclase and phosphodiesterase activity.
Procedure: Effects of adenosine receptor agonists on cAMP content in intact PC12 cells. […] Cyclic AMP levels were determined as described under “Methods”. Values represent mean±SEM of results of triplicate samples from three experiments. […] Values represent mean±SEM of triplicate determinants from one representative experiment.
Briefly, PC12 cells were rinsed three times with Hanks' balanced saline solution (HBSS), detached using a cell lifter, and pelleted by centrifugation at 500 g for 5 minutes. Aliquots of the cell suspension (0.1 to 0.2 mg protein) were placed in microfuge tubes with 250 μL of HBSS containing rolipram (50 μmol/L) to inhibit phosphodiesterases that degrade cAMP_and warmed to 37° C. Appropriate drugs were added to the cell suspensions, and incubations were allowed to continue for 10 minutes. Tubes were placed in a boiling water bath for 5 minutes to terminate the incubation. The samples were then cooled to room temperature, diluted by the addition of 1 mL of 10 mmol/L Tris-HCl buffer at pH 7.4, and then centrifuged for 2 minutes at 13000 g.
The samples were then incubated at 4° C. for 16 hours. At the end of the incubation, 70 μL of a 50% (wt/vol) hydroxyapatite suspension was added to each tube. The suspensions were gently agitated and then incubated for 10 minutes at 4° C. Antibody-bound radioactivity adsorbed to hydroxyapatite was collected onto glass fiber filters by vacuum filtration using a Brandel cell harvester. Radioactivity retained by the filter was counted in a gamma counter. […] The amount of cAMP present in samples was calculated based on a standard curve using known amounts of cAMP.
Assay [6] deals with A2A adenosine receptors (Rattus norvegicus, UniProt P30543). As to the kind of experiment: Competitive radioligand binding, [3H]ZM241385, PC12 cell membranes. The following applies: PC12 cells (A2A).
Procedure: Rat pheochromocytoma PC12 cells were obtained from the American Type Culture Collection and grown in DMEM with 5% fetal bovine serum, 10% horse serum, 0.5 mmol/L L-glutamine, 100 U/mL penicillin, 0.1 mg/l mL streptomycin, and 2.5 μg/mL amphotericin.
Cell membranes were harvested from the cell lines by detaching cells from the culture plates into ice-cold 50 mmol/L Tris-HCl buffer (pH 7.4). The cell suspensions were homogenized and centrifuged at 48,000g for 15 minutes. The pellets were washed three times by re-suspension in ice-cold Tris-HCl buffer and centrifugation. The final pellet was re-suspended in Tris-HCl, aliquoted and frozen at −80° C. until used for receptor binding assays.
Briefly, membrane suspensions, obtained from cells expressing either adenosine receptor subtypes A1, A2A, A2B or A3were incubated for 2 hours at room temperature in 50 mmol/L Tris-HCl buffer (pH 7.4) containing ADA (1U/mL). […] At the end of the incubation, free radioligand was separated from membrane-bound radioligand by filtration through Whatman GF/C glass fiber filters using a Brandel tissue harvester (Gaithersburg, Md.). Triplicate determinations were performed for each concentration of unlabelled compound.
The target in assay [7] is human A2A adenosine receptors (Homo sapiens, UniProt P29274). As to the kind of experiment: Competitive radioligand binding, [3H]ZM241385, HEK-hA2AAdoR membranes. The following applies: HEK-hA2AAdoR.
Procedure: Each point represents the mean±SEM of triplicates pooled from at least three experiments.
ZM241385 was purchased from Tocris Cookson Ltd (Langford, Bristol, UK).
Competitive radiolabeling binding assays were performed to determine the binding affinities of the compounds of the invention for the adenosine receptor subtypes, A1, A2A, A2B and A3. Briefly, membrane suspensions, obtained from cells expressing either adenosine receptor subtypes A1, A2A, A2B or A3were incubated for 2 hours at room temperature in 50 mmol/L Tris-HCl buffer (pH 7.4) containing ADA (1U/mL). […] At the end of the incubation, free radioligand was separated from membrane-bound radioligand by filtration through Whatman GF/C glass fiber filters using a Brandel tissue harvester (Gaithersburg, Md.). Triplicate determinations were performed for each concentration of unlabelled compound.
Assay [8] concerns the target T2, A2A adenosine receptors (PC12 cells). As to the kind of experiment: Rate of decline of agonist-stimulated cAMP in PC12 cells after A2A antagonist SCH58261. The following applies: agonist 1 μM, after addition of SCH58261 (20 μM).
The nature of assay [9]: Coronary blood flow and reversal time, intracoronary infusion in open-chest anesthetized pigs. Type of assay: in vivo. How it is done:
The magnitude of the effect of A2A adenosine receptor agonists on coronary dilation and the duration of the effect was determined in pigs weighing 22-27 kg. […] In addition, animals were used in accordance with the guidelines of the University of Kentucky Institutional Animal Care and Use Protocol.
Anesthesia was maintained with additional sodium pentobarbital (1.5-2 mg/kg, i.v.) every 15-20 minutes. Animals were ventilated via a tracheotomy tube using a mixture of room air and 100% O2. Tidal volume, respiratory rate and fraction of O2 in inspired air were adjusted to maintain arterial blood gas (ABG) and pH values. […] Lactate Ringers solution was administered via an ear or femoral vein as an initial bolus of 300-400 ml followed by a continuous infusion at a rate of 5-7 ml/kg/hr. A catheter was inserted into the femoral artery to monitor arterial blood pressure.
The heart was exposed through a median sternotomy and suspended in a pericardial cradle. Left ventricular pressure (LVP) was measured with a 5F high fidelity pressure sensitive tip transducer (Millar Instruments, Houston, Tex.) placed in the left ventricular cavity via an apical incision and secured with a purse string suture. A segment of the left anterior descending coronary artery (LAD), proximal to the origin of the first diagonal branch, was dissected free of surrounding tissue. A transit time perivascular flow probe (Transonic Systems Inc., Ithaca, N.Y.) was placed around this segment to measure CBF. Proximal to the flow probe, a 24-gauge modified angiocatheter was inserted for intracoronary infusions. […] The A2A adenosine receptors agonists were administered intracoronary.
Relationship between affinity of various agonists for A2A adenosine receptor and the reversal time of their effect to increase coronary conductance was determined in pigs. Each experiment was preceded by a 30-minute stabilization period following the completion of all instrumentation of the animal. Baseline hemodynamic data were then recorded and an intracoronary infusion of an A2A Adenosine receptors agonist was initiated. Each infusion was maintained for 4-5 minutes to allow LAD CBF to reach a steady-state, after which the infusion was terminated. The times to recovery of CBF by 50% (t0.5) and 90% (t0.9) of the difference from peak effect to baseline CBF were recorded. Ten to 15 minutes after CBF returned to pre-drug values a second infusion with a different agonist was started. […] Hemodynamic measurements were made prior to and following the initiation of the phenylephrine infusion. The phenylephrine infusion rate was adjusted during and following the infusions of the adenosine receptor agonists to maintain arterial blood pressure within 5 mmHg of pre-infusion values. The effect of a maximum of three different agonists was determined in each experiment.

[10] abbreviates: [3H]ZM241385, Gpp(NH)p present, read-out: Ki, Pig Strialum (A2A).
Where [11] appears, read: read-out: pKi ± SEM, CHO-hA1AdoR (converted).
The mark [12] stands for this setting: read-out: EC50, Coronary Conductance (Rat Isolated Heart).
Where [13] appears, read: read-out: pEC50 ± SEM, Coronary Conductance (Rat Isolated Heart) (converted).

Where two headings read alike, the source gives them in different places.

Sequence of A2A adenosine receptors (Sus scrofa, UniProt K9IW67) (K9IW67 1-409): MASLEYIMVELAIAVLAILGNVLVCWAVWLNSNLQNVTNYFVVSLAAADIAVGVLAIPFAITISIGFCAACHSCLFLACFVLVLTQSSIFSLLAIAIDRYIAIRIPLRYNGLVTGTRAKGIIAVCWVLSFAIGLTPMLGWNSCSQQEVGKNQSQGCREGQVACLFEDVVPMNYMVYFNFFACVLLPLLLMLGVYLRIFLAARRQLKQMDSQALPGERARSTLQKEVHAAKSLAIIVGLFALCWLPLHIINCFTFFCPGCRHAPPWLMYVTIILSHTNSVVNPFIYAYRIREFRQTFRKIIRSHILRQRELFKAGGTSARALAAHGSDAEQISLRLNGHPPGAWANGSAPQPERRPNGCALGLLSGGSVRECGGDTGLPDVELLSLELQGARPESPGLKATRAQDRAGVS
Sequence of human A2A adenosine receptors (P29274 whole entry): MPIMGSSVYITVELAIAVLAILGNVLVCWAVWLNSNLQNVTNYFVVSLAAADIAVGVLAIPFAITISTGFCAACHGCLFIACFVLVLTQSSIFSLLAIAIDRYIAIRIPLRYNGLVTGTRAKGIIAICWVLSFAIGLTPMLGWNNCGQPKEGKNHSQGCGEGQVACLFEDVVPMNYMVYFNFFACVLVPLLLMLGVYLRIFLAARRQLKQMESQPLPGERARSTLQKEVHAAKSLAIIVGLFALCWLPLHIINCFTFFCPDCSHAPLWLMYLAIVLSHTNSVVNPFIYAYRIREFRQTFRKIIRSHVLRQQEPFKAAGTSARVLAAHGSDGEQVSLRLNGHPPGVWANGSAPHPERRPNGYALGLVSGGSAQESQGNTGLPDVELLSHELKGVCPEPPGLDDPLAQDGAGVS
Sequence of A2A adenosine receptors (Rattus norvegicus, UniProt P30543) (P30543 whole entry): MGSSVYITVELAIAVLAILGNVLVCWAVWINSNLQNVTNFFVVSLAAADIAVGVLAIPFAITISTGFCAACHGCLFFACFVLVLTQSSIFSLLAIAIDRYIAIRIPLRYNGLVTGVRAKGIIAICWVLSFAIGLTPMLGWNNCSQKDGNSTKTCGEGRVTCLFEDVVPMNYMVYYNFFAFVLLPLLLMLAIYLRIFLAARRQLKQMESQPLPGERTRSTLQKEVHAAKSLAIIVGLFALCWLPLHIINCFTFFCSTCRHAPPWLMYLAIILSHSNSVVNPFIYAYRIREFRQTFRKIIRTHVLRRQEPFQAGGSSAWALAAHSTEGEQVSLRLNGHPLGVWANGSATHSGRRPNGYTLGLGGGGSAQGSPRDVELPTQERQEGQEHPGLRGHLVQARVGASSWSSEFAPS
T2 sequence (P30543 whole entry): as above

Regarding `Nc1nc(C#CCOc2ccccc2)nc2c1ncn2C1O[C@@H](CO)[C@H](O)[C@@H]1O` (stereo partly drawn) [CVT-2995], the Ki on A2A adenosine receptors [1] (setting [10]) was 14.4 nM; on A2A adenosine receptors [1] ([3H]ZM241385, Gpp(NH)p present, read-out: pKi ± SEM, Pig Strialum (A2A) (converted)), 13.8 nM; in assay [2] (read-out: Ki, CHO-hA1AdoR) it was 866 nM; in assay [2] (setting [11]) it was 851 nM; on A2A adenosine receptors [6] (Ki, [3H]ZM241385) it was 53 nM; in assay [7] (Ki, [3H]ZM241385), 305 nM. The molecule also returned a Ki in assay [7] (pKi ± SEM, [3H]ZM241385) of 302 nM. Moreover, the EC50 in [3] (setting [12]) was 0.68 nM; in assay [3] (setting [13]) it was 0.676 nM; in [5] (EC50, cAMP Accumulation (PC12 cells)), 6.6 nM; in assay [5] (pEC50 ± SEM, cAMP Accumulation (PC12 cells)), 1.51 nM. Besides, the “t0.5, time to 50% reversal of the increase in coronary conductance” value in assay [4] is 17.5 ± 1.2 min. Moreover, the “t0.9, time to 90% reversal of the increase in coronary conductance” value in assay [4] worked out at 23.2 ± 2.1 min. The “t0.5, rate of decline of cAMP accumulated” value in [8] is reported as 3.9 ± 0.6 min.
On to `Nc1nc(N/N=C/C2CCCCC2)nc2c1ncn2[C@@H]1O[C@H](CO)[C@@H](O)[C@H]1O` [WRC0470, 2-cyclohexylmethylidenehydrazinoadenosine, reference compound], for which the Ki on A2A adenosine receptors [1] was 20.7 nM; in assay [2] (read-out: Ki, CHO-hA1AdoR), 7280 nM; in assay [2] (setting [11]) it was 6920 nM; on A2A adenosine receptors [6] (Ki) it was 18 nM; at A2A adenosine receptors [6] (pKi ± SEM), 17 nM. The EC50 in [3] (setting [12]) was 0.62 nM; in assay [3] (setting [13]), 0.646 nM. Besides, the “t0.5 reversal of increase in coronary blood flow” value in assay [9] (1 ug/kg/min intracoronary) was 9.5 ± 0.8 min. Also, the “t0.9 reversal of increase in coronary blood flow” value in assay [9] (1 ug/kg/min intracoronary) is 22.5 ± 1.6 min.
`Nc1nc(-c2cnn(Cc3ccccc3)c2)nc2c1ncn2C1O[C@@H](CO)[C@H](O)[C@@H]1O` (stereo partly drawn) [CVT-3032]: the Ki is 1590 nM on A2A adenosine receptors [1] (setting [10]); 6350 nM in assay [2] (read-out: Ki, CHO-hA1AdoR); 6030 nM in assay [2] (setting [11]); 5520 nM on A2A adenosine receptors [6] (Ki); 13700 nM in assay [7] (Ki); 13500 nM in [7] (pKi ± SEM). Besides, the EC50 in assay [3] (setting [12]) was 66.5 nM; in assay [3] (setting [13]), 66.1 nM; in [5], 613 nM. For the same molecule, the “t0.5, time to 50% reversal of the increase in coronary conductance” value in assay [4] is on record as 4.1 ± 0.3 min. The “t0.9, time to 90% reversal of the increase in coronary conductance” value in [4] was found to be 9.8 ± 1.4 min. Moreover, the “CBF (fold-increase)” value in assay [9] (30 ug/kg/min intracoronary) stood at 3.78 ± 0.70 fold. Moreover, the “t0.5 reversal of increase in coronary blood flow” value in assay [9] (30 ug/kg/min intracoronary) was 2.3 ± 0.6 min. Moreover, in assay [9] (30 ug/kg/min intracoronary), the “t0.9 reversal of increase in coronary blood flow” value stood at 9.6 ± 1.0 min. The “agonist behaviour in PC12 cells” value in [5] is given as “partial A2A agonists”. In addition, the Emax in assay [5] (PC-12, read-out: maximal response of cAMP accumulation, % of that induced by CGS21680) stood at 65%.
